Data from patent US6166084A, “Compositions for the treatment of chronic wounds” (Johnson & Johnson Medical, Ltd., priority 1996, dated 2000).

What was measured:
[1] = system: TNF-α induced CD 54, Intercellular Adhesion Molecule (ICAM-1) expression by Human Umbilical Vein Endothelial Cells (HUVEC); assay: TNF-α induced ICAM-1 expression by HUVEC (ELISA); type: cell-based; details: TNF-α 0.5 ng/ml
Procedure: The effects of NAC on the expression of the TNF-α induced CD 54, Intercellular Adhesion Molecule (ICAM-1) by Human Umbilical Vein Endothelial Cells (HUVEC) was assessed as follows.
DL-Buthionine sulphoximine (BSO) was used to pretreat the cells. BSO is an inhibitor of glutathione synthesis and therefore reduces the glutathione content of the HUVEC rendering them more susceptible to oxidative stress and mimicking the conditions implicated in chronic wounds. NAC was used as a treatment to inhibit the expression of ICAM-1 by interfering with the TNF-α mediated intracellular signalling.
HUVEC were seeded to wells of 96 well plates (5000 cells per well in 100 μl Endothelial Growth Medium (EGM)). The plates were allowed to grow until the cells reached 90% confluence. The medium was decanted from each plate and the following treatments (all volumes were 200 μl, performed in quadruplicate wells) where then applied to the HUVEC. […]
ICAM-1 expression, stimulated by inflammatory mediators such as tumour necrosis factor, can be detected on the surface of cells (endothelial cells, monocytes, T&B cells, keratinocytes, chondrocytes and epithelial cells) using ELISA techniques, as follows: […]
8. Stop the reaction when colour develops by the addition of 1M H2 SO4 (100 μl per well) and read the absorbance at 450 nm using a Dynatech (RTM) plate reader.

[2] = system: matrix metalloproteinases (MMP) from human wound fluid; assay: MMP activity by gelatin SDS-PAGE zymography; type: biochemical; details: 18 hours at 37° C., pH 7.8
Procedure: The effect of NAC concentration on the activity of matrix metalloproteinases (MMP) from human wound fluid was assessed as follows.
The MMP activity was determined by gelatin SDS polyacrylamide gel electrophoresis (zymography) similar to that described by Heussen C. and Dowdle E. B. in Anal. Biochem. 102:196-202 (1980).
The experimental method was as follows:
1. Gel preparation. The following components were mixed thoroughly:
1. 5 ml 30% acrylamide/bis acrylamide (30 g acrylamide (Sigma A8887) plus 0.8 g N-N'-methylene bis-acrylamide (Sigma M7279) in 100 ml deionised water).
2. 6.05 ml deionised water.
3. 3.75 ml 1.5M Tris-HCl buffer.
4. 150 μl 10% sodium dodecyl sulphate (SDS. Fisons S/5200/53).
5. 1 ml warm (60° C.) gelatin (Sigma G9382) solution (7.5 mgml^-1).
6. Immediately prior to casting the gel 50 μl 10% ammonium persulphate (APS, Fisons A/6160/53) and 12.5 μl tetramethylethylenediamine (TEMED, Sigma T9281).
4.5 ml of the above mixture was added to the electrophoresis apparatus (Dual Mini Slab Kit, Atto Corporation), and covered with propanol saturated water. The gel was left gel to polymerise for at least 45 minutes. Then propanol solution was decanted and added to 1 ml of stacking gel solution (3.15 ml deionised water, 0.75 ml 30% acrylamide/bis-acrylamide, […] 1.5M Tris-HCl, 50 μl 10% SDS, 50 μl ammonium persulphate and 10 μl TEMED). Finally, a sample comb (8 lane comb) was inserted and the gel left to polymerise for at least 45 minutes.
2. Sample preparation: A matrix metalloprotease (MMP) sample (10% solution of human acute wound fluid diluted in MMP proteolysis buffer (see below)) was diluted 1:1 with sample buffer (6.3 ml 0.5M Tris-HCl pH 6.8, 2.5 ml glycerol, 0.5 g SDS, 16.2 ml deionised water and bromophenol blue to colour).
3. Sample loading and electrophoresis: 20 μl of the MMP samples were loaded into 8 lanes of the gel. The MMP's were separated for 1 hour at 20 mA/100V per gel until the dye front was almost at the bottom of the gel. The gel apparatus was then dismantled and the gel removed.
4. Proteolysis: Washed gels for 30 minutes with 100 ml 2.5% Triton X-100. The procedure was repeated three times. The gels were cut into slices consisting of two lanes per slice. The gel slices were incubated in 20 ml proteolysis buffer (50 mM Tris-HCl pH 7.8, 50 mM CaCl2, 0.5M NaCl) containing the following treatments (each treatment was adjusted to pH 7.8) for 18 hours at 37° C.: (1) proteolysis buffer alone; (2) N-acetyl cysteine (44 mM); (3) N-acetyl cysteine (4.4 mM); (4) N-acetyl cysteine (0.44 mM).
5. […]
The area of the individual zones of clearance on the gels, which are due to proteinase activity, were accurately measured by the Optilab (RTM) system. […]

CC(=O)N[C@@H](CS)C(=O)O [NAC, N-acetyl-3-mercaptoalanine]
inhibition of ICAM-1 expression (concentration dependence) ([1]; BSO (50 μM) pretreated HUVEC, NAC 1.1, 3.3, 10 mM, FIG. 1): concentration-dependent inhibition
inhibition of ICAM-1 expression, all NAC concentrations ([1]; NAC 10, 3.3 and 1.1 mM, P<0.05, Students T-test, BSO pretreated HUVEC): significant inhibition
inhibition of MMP activity ([2]; 0.44 mM NAC): approximately 10%
inhibition of MMP activity ([2]; 4.4 mM NAC solution): Approximately 70%
inhibition of MMP activity ([2]; 44 mM NAC solution): substantially complete
inhibition of MMP activity (concentration dependence) ([2]; NAC 0.44, 4.4, 44 mM, FIG. 2): clear concentration-dependent inhibition
